In article PMC11887451, “Leveraging Immunogenic Cell Death to Enhance the Immune Response against Malignant Pleural Mesothelioma Tumors” (Journal of the American Chemical Society, 2025):

Tests used:
BALB/c mice = settings: i.p., 12 injections, 5F 2.5 mg/kg
[1] = test system: human malignant mesothelioma cell line LO68; assay: MTT cytotoxicity assay, 72 h, LO68; assay type: cell-based; settings: exposure time 72 h
From the text: Human malignant mesothelioma cancer cell lines JU77 and LO68 were obtained from Cell Bank Australia (Children's Medical Research Institute, Westmead, Australia). Mouse malignant mesothelioma cancer cell line AB12, human nonmalignant mesothelioma cancer cell line Met5A (mesothelial cells), mouse macrophage cell line J774 and human monocytic cell line THP-1 were obtained from American Type Culture Collection (ATCC) (Rockville, MD, USA). Human malignant mesothelioma cell lines VMC23 (epithelial), Meso82 (sarcomatous), Meso92 (biphasic), were kindly provided by Prof. Walter Berger (Medical University of Vienna). All cells except for J774 were cultured in RPMI and J774 cells were cultured in DMEM. Both types of media were supplemented with 10% FBS and 1% penicillin-streptomycin (10,000 U/mL). Cells were grown in tissue culture flasks (75 cm2 and 25 cm2, SPL Life Sciences Co., Ltd., Korea). All cell lines were grown at 37 °C in a humidified atmosphere of 95% air and 5% CO 2 and passaged when they reached 80–90% confluency. All Au stock solutions were prepared in 1% DMSO in the respected medium, ensuring that cell viability was not inhibited.
The cytotoxicity of compounds was determined using an MTT colorimetric test. The cells were harvested from culture flasks by trypsinization and seeded into Cellstar 96 -well microculture plates (Greiner Bio -One) at the seeding density of 6000 cells per well (6 × 10^4 cells/mL). After
the cells were allowed to resume exponential growth for 16 h, they were exposed to drugs at
different concentrations in media for 72 h. The drugs were diluted in a complete medium at the desired concentration added to each well (100 μL) and serially diluted in other wells. After exposure for 72 h, the media was replaced with MTT in media (5 mg/mL, 100 μL/well) and
incubated for an additional 50 min. Subsequently, the medium was aspirated, and the purple formazan crystals formed in viable cells were dissolved in DMSO (100 μL/well). Optical densities were measured at 570 nm using a BioTek Synergy H1 microplate and MultiskanTM SkyHigh plate readers. The quantity of viable cells was expressed in terms of treated/control (T/C) values in comparison to untreated control cells, and 50% inhibitory concentrations (IC 50) were calculated from concentration-effect curves by interpolation. An evaluation was based on means from at least three independent experiments, each comprising three replicat es per

[2] = test system: patient-derived VMC23 cell line (epithelioid MPM); assay: MTT cytotoxicity assay, 72 h, VMC23; assay type: cell-based, human; settings: exposure time 72 h
[3] = test system: patient-derived Meso84 cell line (sarcomatoid MPM); assay: MTT cytotoxicity assay, 72 h, Meso84; assay type: cell-based, human; settings: exposure time 72 h
[4] = test system: human nonmalignant mesothelioma cell line Met5A; assay: MTT cytotoxicity assay, 72 h, Met5A; assay type: cell-based; settings: exposure time 72 h
[5] = test system: human malignant mesothelioma cell line JU77; assay: MTT cytotoxicity assay, 72 h, JU77; assay type: cell-based; settings: exposure time 72 h
[6] = test system: murine malignant mesothelioma cell line AB12; assay: MTT cytotoxicity assay, 72 h, AB12; assay type: cell-based, mouse; settings: exposure time 72 h
[7] = test system: patient-derived Meso92 cell line (biphasic MPM); assay: MTT cytotoxicity assay, 72 h, Meso92; assay type: cell-based, human; settings: exposure time 72 h
AB12 cells = assay: Annexin V/PI assay (necrosis), flow cytometry; assay type: cell-based, mouse; settings: AB12, 5 × IC50 (72 h), short exposure
Experimental: centrifugation of the cells (300 × g, 5 min), 5 ml of fresh RPMI was introduced, and the cells were seeded at a density of 5 x 10^5 cells per well into Cellstar 6-well plates (Greiner Bio-One) (1 ml per well). J774 macrophages (70-80% confluence in a T75 flask) were detached by scraping, centrifuged (300 × g, 5 min). The medium was substituted with 1 ml of DMEM containing CellTracker Green CMFDA (1 μM) and the J774 macrophages were stained at 37°C for 30 minutes. Following centrifugation of the J774 macrophages (300 × g, 5 min), 5 ml of fresh DMEM was introduced, and the macrophages were seeded into a 100 cm2 petri dish (SPL Life Sciences, Korea). After 24 h, the media in AB12 cells was replaced with 1 ml of fresh RPMI containing compounds of interest at equipotent concentration of 5 × IC50 and incubated for 100 minutes. After removing the drug-containing media, the cells were trypsinized (0.5 ml), neutralized with 1 ml of RPMI, centrifuged (300 × g, 5 min) and counted. From each sample, 2 × 10^5 AB12 cells were seeded into Cellstar 6-well plates (Greiner Bio-One) (1 ml per well).
2 × 10^5 J774 macrophages were detached from a petri dish by scraping and added to AB12 cells into 6-well plates. AB12 cells and J774 macrophages were co-incubated for 16 h at 37°C and 5% CO2, detached by scraping, centrifuged (300 × g, 5 min), and the pellets were resuspended in PBS for immediate analysis using a CytoFLEX Flow Cytometer (Beckman Coulter, USA). The percentage of phagocytosis was determined by calculating the number of double-positive macrophages (Q2) over the total number of macrophages (Q2 + Q3). Dot plots […]
analysis of the flow cytometry data. […]
concentrations for 100 min at 37 °C. […] Cell death was evaluated by flow cytometry using a CytoFLEX Flow Cytometer equipped with a 488 nm laser and a 638 nm laser (Beckman Coulter, Brea, CA, USA). The cells were excited by the 488 nm laser, and fluorescence emissions were detected at 525/40 nm for FITC (Annexin V) and at 610/20 nm for ECD (PI).
The percentage of necrosis was determined by calculating the sum of cells in Q1 and Q2. […]

[8] = determined from retention time using RP-HPLC
[9] = test system: AB12 cells phagocytosed by J774 macrophages; assay: Phagocytosis assay, flow cytometry; assay type: cell-based, mouse; settings: AB12 treated 100 min at 5 × IC50 (72 h), 16 h with J774 macrophages
Experimental: page 21: incubated for an additional 50 min. Subsequently, the medium was aspirated, and the purple formazan crystals formed in viable cells were dissolved in DMSO (100 μL/well). Optical densities were measured at 570 nm using a BioTek Synergy H1 microplate and MultiskanTM SkyHigh plate readers. The quantity of viable cells was expressed in terms of treated/control (T/C) values in comparison to untreated control cells, and 50% inhibitory concentrations (IC 50) were calculated from concentration-effect curves by interpolation. An evaluation was based on means from at least three independent experiments, each comprising three […] concentration level. For macrophage analyses, the acute monocytic leukemia -derived THP-1 cell line (ATCC) was used as a model. 1 × 104 THP-1 cells were seeded per well in 96-well plates in RPMI-1640 with 10% FCS and treated for 24 h with 75 nM phorbol 12-myristate 13-acetate (PMA, Sigma- Aldrich) to induce M0 macrophage differentiation. After the differentiation period, PMA was replaced by fresh culture medium to recover for 2h. Afterwards increasing concentrations of 1G, 5A, 5B and 5G were added for a 72-h continuous drug exposure assay. In parallel, the […] were allowed to attach for 24 h. Gold compounds were added to the cells as described for the THP-1 model above. After the incubation period of 72 h, cell viability was determined by an MTT-based assay (EU4U, Biomedica) following the instructions of the manufacturer. DMSO had not impact on the cell viability at the concentrations used. Flow cytometry experiments Phagocytosis assay […] with RPMI, centrifuged (300 × g, 5 min) and labelled with CellTracker Red CMTPX Dye (0.72 μM for 5 × 10^5 cells) at 37°C for 30 minutes in 1 ml of serum -free RPMI. Following S21 page 22: centrifugation of the cells (300 × g, 5 min), 5 ml of fresh RPMI was introduced, and the cells were seeded at a density of 5 x 10^5 cells per well into Cellstar 6-well plates (Greiner Bio-One) (1 ml per well). J774 macrophages (70-80% confluence in a T75 flask) were detached by scraping, centrifuged (300 × g, 5 min). The medium was substituted with 1 ml of DMEM containing CellTracker Green CMFDA (1 μM) and the J774 macrophages were stained at 37°C for 30 minutes. Following centrifugation of the J774 macrophages (300 × g, 5 min), 5 ml of fresh DMEM was introduced, and the macrophages were seeded into a 100 cm2 petri dish (SPL Life Sciences, Korea). After 24 h, the media in AB12 cells was replaced with 1 ml of fresh […] for 100 minutes. After removing the drug-containing media, the cells were trypsinized (0.5 ml), neutralized with 1 ml of RPMI, centrifuged (300 × g, 5 min) and counted. From each sample, […] cells into 6-well plates. AB12 cells and J774 macrophages were co-incubated for 16 h at 37°C and 5% CO2, detached by scraping, centrifuged (300 × g, 5 min), and the pellets were resuspended in PBS for immediate analysis using a CytoFLEX Flow Cytometer (Beckman Coulter, USA). The percentage of phagocytosis was determined by calculating the number of double-positive macrophages (Q2) over the total number of macrophages (Q2 + Q3). […] Annexin V/PI assay AB12 cells were seeded into Cellstar 6-well plates (Greiner Bio-One) at a density of 5 × 10^5 cells/well (1 ml per well). […] The medium was removed and cells were washed with PBS (2 × 1 mL). Afterwards the cells were […] S22

SMILES | signs of toxicity, daily injections (BALB/c mice; 5A and 5H 4 mg/kg) | deaths, daily injections (BALB/c mice; 5H 4 mg/kg) | IC50 [1] [µM] | IC50 [2] [µM] | IC50 [3] [µM] | IC50 [4] [µM] | IC50 [5] [µM] | IC50 [6] [µM] | IC50 [7] [µM] | necrotic cell death (in words) (AB12 cells) | LogP [8] | phagocytosis / ICD response (in words) [9]
F[P-](F)(F)(F)(F)F.c1cc[c]2c(c1)Nc1cccc[n+]1[Au-]21[S]C(=[N+]2CCCCC2)[S]1 (stereo not shown) [5H] | led to toxicity in mice | death of two mice | 0.44 ± 0.09 | 0.94 ± 0.27 | 0.1 ± 0.02 | 0.13 ± 0.01 | 0.4 ± 0.09 | 0.1 ± 0.01 | 0.82 ± 0.18 | – | – | –
F[P-](F)(F)(F)(F)F.c1cc[c]2c(c1)-c1cccc[n+]1[Au-]21[S]C(=[N+]2CCCCC2)[S]1 (stereo not shown) [1H] | – | – | 0.37 ± 0.1 | 1.4 ± 0.1 | 0.7 ± 0.09 | 0.13 ± 0.03 | 0.62 ± 0.12 | 0.091 ± 0.018 | 1.1 ± 0.1 | did not result in significant necrotic cell death | 2.45 | high levels of phagocytosis
F[P-](F)(F)(F)(F)F.c1ccc(C[N+](Cc2ccccc2)=C2[S][Au-]3([S]2)[c]2ccccc2Cc2cccc[n+]23)cc1 (stereo not shown) [2D] | – | – | 2.2 ± 0.4 | 2.4 ± 0.5 | 3 ± 0.3 | 2.5 ± 0.4 | 2.3 ± 0.7 | 3.9 ± 0.5 | 5.4 ± 1.3 | did not result in significant necrotic cell death | – | high levels of phagocytosis
